PubChem BioAssay AID248 (DTP/NCI, 2004)
Where “and” joins values, the source holds several entries; their conditions need not be identical. Equal entries are not always repeated. Inconclusive results and toxic doses are left out.

System: L1210 leukemia ip in BDF1 mice, survival T/C
Experiment: NCI In Vivo Anticancer Drug Screen. Data for tumor model L1210 Leukemia (intraperitoneal) in B6D2F1 (BDF1) mice
Settings: endpoint: mean survival time, higher = longer survival
How it was run: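 In this screen, tumor-bearing mice given compound are compared to those given vehicle, and their survival values are reported as a treated-to-control quotient.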

[1] = dose: 100.0 mg/kg/injection, schedule: Q04DX003 (ip), vehicle: Klucel (hydroxypropylcellulose) (HPC)
[2] = dose: 200.0 mg/kg/injection, schedule: Q04DX003 (ip), vehicle: Klucel (hydroxypropylcellulose) (HPC)
[3] = dose: 400.0 mg/kg/injection, schedule: Q04DX003 (ip), vehicle: Klucel (hydroxypropylcellulose) (HPC)
[4] = dose: 100.0 mg/kg/injection, schedule: Q01DX001 (ip), vehicle: saline

O=C(OCC1OC(n2cnc3c(=S)nc[nH]c32)C(OC(=O)c2ccccc2)C1OC(=O)c1ccccc1)c1ccccc1 (stereo unspecified) was tested, and the T/C (dose: 25.0 mg/kg/injection, schedule: Q01DX009 (ip), vehicle: saline) was 118 % of control, the T/C (dose: 25.0 mg/kg/injection, schedule: Q01DX Z (ip), vehicle: saline) was 109 % of control and the T/C (dose: 39.0 mg/kg/injection, schedule: Q01DX Z (ip), vehicle: carboxymethylcellulose (CMC)) was 124 % of control. For the same molecule, the T/C (dose: 50.0 mg/kg/injection, schedule: Q01DX Z (ip), vehicle: saline) was 117 % of control, the T/C (dose: 88.0 mg/kg/injection, schedule: Q01DX Z (ip), vehicle: carboxymethylcellulose (CMC)) was 118 % of control and the T/C (dose: 100.0 mg/kg/injection, schedule: Q01DX009 (ip), vehicle: saline) was 168 % of control. For the same molecule, the T/C (dose: 110.0 mg/kg/injection, schedule: Q01DX009 (ip), vehicle: saline) was 123 % of control, the T/C (dose: 220.0 mg/kg/injection, schedule: Q01DX009 (ip), vehicle: saline) was 150 % of control and the T/C (dose: 222.0 mg/kg/injection, schedule: Q01DX Z (ip), vehicle: saline) was 95 % of control. For the same molecule, the T/C (dose: 300.0 mg/kg/injection, schedule: Q01DX Z (ip), vehicle: carboxymethylcellulose (CMC)) was 150 % of control and 168 % of control, the T/C (dose: 300.0 mg/kg/injection, schedule: Q01DX Z (ip), vehicle: methylcellulose (MC)) was 112 % of control and the T/C (dose: 450.0 mg/kg/injection, schedule: Q01DX Z (ip), vehicle: carboxymethylcellulose (CMC)) was 171 % of control. The T/C (dose: 450.0 mg/kg/injection, schedule: Q01DX Z (ip), vehicle: methylcellulose (MC)) was 97 % of control, the T/C (dose: 600.0 mg/kg/injection, schedule: Q01DX001 (ip), vehicle: saline) was 120 % of control and the T/C (dose: 675.0 mg/kg/injection, schedule: Q01DX Z (ip), vehicle: carboxymethylcellulose (CMC)) was 100 % of control and 109 % of control. For the same molecule, the T/C (dose: 1007.0 mg/kg/injection, schedule: Q01DX Z (ip), vehicle: carboxymethylcellulose (CMC)) was 93 % of control and the T/C (dose: 1510.0 mg/kg/injection, schedule: Q01DX Z (ip), vehicle: carboxymethylcellulose (CMC)) was 90 % of control.
For CC(C)C(CN)(CCCCN1CCCC1)c1cccc2ccccc12 (stereo unspecified), the T/C (dose: 12.5 mg/kg/injection, schedule: Q04DX003 (ip), vehicle: saline) was 96 % of control, the T/C (dose: 25.0 mg/kg/injection, schedule: Q04DX003 (ip), vehicle: saline) was 93 % of control and the T/C (dose: 50.0 mg/kg/injection, schedule: Q04DX003 (ip), vehicle: saline) was 96 % of control.
NC(=O)OCC#CCN1CCCC1 was tested, and the T/C (dose: 5.0 mg/kg/injection, schedule: Q04DX003 (ip), vehicle: saline with Tween-80) was 96 % of control, the T/C (dose: 10.0 mg/kg/injection, schedule: Q04DX003 (ip), vehicle: saline with Tween-80) was 98 % of control and the T/C (dose: 20.0 mg/kg/injection, schedule: Q04DX003 (ip), vehicle: saline with Tween-80) was 93 % of control.
With Cc1ccc(S(=O)(=O)OCCCCCCCCCCCCCCOS(=O)(=O)c2ccc(C)cc2)cc1 the T/C (dose: 100.0 mg/kg/injection, schedule: Q01DX009 (ip), vehicle: Klucel (hydroxypropylcellulose) (HPC)) was 97 % of control, the T/C [1] was 97 % of control and the T/C (dose: 200.0 mg/kg/injection, schedule: Q01DX009 (ip), vehicle: Klucel (hydroxypropylcellulose) (HPC)) was 98 % of control. The T/C [2] was 96 % of control, the T/C (dose: 400.0 mg/kg/injection, schedule: Q01DX009 (ip), vehicle: Klucel (hydroxypropylcellulose) (HPC)) was 106 % of control and the T/C [3] was 92 % of control.
For Cc1cnc2c(=O)[nH]c(=O)[nH]c2n1, the T/C (dose: 12.5 mg/kg/injection, schedule: Q01DX009 (ip), vehicle: Klucel (hydroxypropylcellulose) (HPC)) was 102 % of control, the T/C (dose: 25.0 mg/kg/injection, schedule: Q01DX009 (ip), vehicle: Klucel (hydroxypropylcellulose) (HPC)) was 98 % of control and the T/C (dose: 50.0 mg/kg/injection, schedule: Q01DX009 (ip), vehicle: Klucel (hydroxypropylcellulose) (HPC)) was 96 % of control. The T/C [1] was 96 % of control, the T/C [2] was 92 % of control and the T/C [3] was 92 % of control.
For COc1cccc(/C=N\N=C\c2cccc(OC)c2OC)c1OC, the T/C (dose: 50.0 mg/kg/injection, schedule: Q01DX009 (ip), vehicle: saline) was 120 % of control and the T/C (dose: 200.0 mg/kg/injection, schedule: Q01DX009 (ip), vehicle: saline) was 110 % of control.
O=C(Cc1ccccc1)c1ccc(N2CCOCC2)cc1 was tested, and the T/C [4] was 89 % of control and the T/C (dose: 400.0 mg/kg/injection, schedule: Q01DX001 (ip), vehicle: saline) was 86 % of control.
C=C1CC(c2ccccc2)(c2cccs2)OC1=O (stereo unspecified) was tested, and the T/C [1] was 98 % of control and the T/C [2] was 96 % of control.
In the case of ClCc1cccc2c(CCl)cccc12, the T/C (dose: 50.0 mg/kg/injection, schedule: Q01DX001 (ip), vehicle: saline) was 101 % of control and the T/C [4] was 101 % of control.
With COC(OC)c1[nH]c(=O)[nH]c(=O)c1F.[Hg] the T/C (dose: 3.0 mg/kg/injection, schedule: Q01DX009 (ip), vehicle: saline) was 97 % of control, the T/C (dose: 6.0 mg/kg/injection, schedule: Q01DX009 (ip), vehicle: saline) was 97 % of control and the T/C (dose: 12.0 mg/kg/injection, schedule: Q04DX003 (ip), vehicle: saline) was 98 % of control.
